Experimental data reported in patent publication US20100331269A1, “TRITERPENES DERIVATIVES AND USES THEREOF AS ANTITUMOR AGENTS OR ANTI-INFLAMMATORY AGENTS” (priority 2006, published 2010).

Columns and labels:
[1] = test system: WS-1 human normal skin fibroblasts; experiment: Cytotoxicity, resazurin metabolism assay, WS-1; format: cell-based; details: 48 h, mean ± SD
Description: (§1) Human lung carcinoma (A-549), human colon adenocarcinoma (DLD-1), human normal fibroblasts (WS1), mice melanoma (B16-F1), Human glioma (U-251), Human hepatocellular carcinoma (HEP G2), Human prostate adenocarcinoma (PC-3), Human ovary teratocarcinoma metastatic (PA-1), Human breast adenocarcinona metastatic (MDA-MB-231), Human breast adenocarcinoma (MCF-7) and Human malignant melanoma (SK-MEL-2) cell lines were obtained from the American Type Culture Collection (ATCC). All cell lines were cultured in minimum essential medium containing Earle's salts and L-glutamine (Mediatech Cellgro, Va.), to which was added 10% fetal bovine serum (Hyclone), vitamins (1×), penicillin (100 I.U./mL) and streptomycin (100 μg/mL), essential amino acids (1×) and sodium pyruvate (1×) (Mediatech Cellgro, Va.). Cells were kept at 37° C. in a humidified environment containing 5% CO2.
(§2) Exponentially growing cells were plated in 96-well microplates (Costar, Corning Inc.) at a density of 5×10^3 cells per well in 100 μL of culture medium and were allowed to adhere for 16 hours before treatment. Increasing concentrations of each compound in DMSO (Sigma-Aldrich) were then added (100 μL per well) and the cells were incubated for 48 h. […] Cytotoxicity was assessed using resazurin (O'Brien, J. et al., Eur. J. Biochem. 2000, 267, 5421-5426) on an automated 96-well Fluoroskan Ascent F1™ plate reader (Labsystems) using excitation and emission wavelengths of 530 nm and 590 nm, respectively. Fluorescence was proportional to the cellular metabolic activity in each well. Survival percentage was defined as the fluorescence in experimental wells compared to that in control wells after subtraction of blank values. Each experiment was carried out three times in triplicata. IC50 results were expressed as mean±standard deviation.
(§3) The cytotoxicity of triterpenes (1-8) and corresponding glycosides (9-30) (Table 2 below) as well as of germanicane-type triterpenes and glycosides (31-44) (Table 3 below) was assessed towards human cancer (A-549, DLD-1), mouse melanoma (B16-F1) and human normal skin fibroblast (WS1) cell lines using the resazurin reduction test (RTT test) as previously described (O'Brien, J. et al., Eur. J. Biochem. 2000, 267, 5421-5426). Measurements of fluorescence were carried out after 48 continuous hours of contact between compounds and cells. Results presented in Tables 2 and 3 below express the concentration inhibiting 50% of the cell growth (IC50). Known for its activity against A-549, betulinic acid (3) was used as a positive control in this experimentation. […] The cytotoxic activity of some of these compounds was also assessed using the Hoechst DNA assay (Table 4 below).

[2] = test system: DLD-1 human colorectal adenocarcinoma cells; experiment: Cytotoxicity, resazurin metabolism assay, DLD-1; format: cell-based; details: 48 h, mean ± SD
Description: as §1, §2, §3

[3] = test system: A-549 human lung carcinoma cells; experiment: Cytotoxicity, resazurin metabolism assay, A-549; format: cell-based; details: 48 h, mean ± SD
Description: as §1, §2, §3

[4] = test system: DLD-1 cells; experiment: Cytotoxicity, Hoechst DNA assay, DLD-1; format: cell-based, human; details: ± SD
Description: as §1, §3

[5] = test system: WS-1 cells; experiment: Cytotoxicity, Hoechst DNA assay, WS-1; format: cell-based, human; details: ± SD
Description: as §1, §3

[6] = test system: NO production in lipopolysaccharide (LPS) stimulated cells; details: read-out: IC50 (NO production); cells stimulated with 100 ug/ml LPS, 24 h, Griess reaction
Protocol: Exponentially growing cells were plated in 24-well microplates (BD Falcon) at a density of 2×10^5 cells per well in 400 μl of culture medium and were allowed to adhere overnight. Cells were then treated or not with positive control N(G)-nitro-L-arginine methyl ester (L-NAME), or increasing concentrations of methanol extracts dissolved in the appropriate solvents, and incubated at 37° C., 5% CO2 for 24 h. The final concentration of solvent in the culture medium was maintained at 0.5% (volume/volume) to avoid solvent toxicity. Cells were then stimulated with 100 ug/ml lipopolysaccharide (LPS). After 24 h, cell-free supernatants were collected and stored at −80° C. until NO determination using the Griess reaction (Green et al. 1990) with minor modifications. Briefly, 100 μl aliquots of cell supernatants were incubated with 50 μl of 1% sulfanilamide and 50 μl of 0.1% N-1-naphtylethylenediamine dihydrochloride in 2.5% H3PO4 at room temperature for 20 min. Absorbance at 540 nm was then measured using an automated 96-well Varioskan Ascent™ plate reader (Thermo Electron) and the presence of nitrite was quantified by comparison with an NaNO2 standard curve.

[7] = test system: B16-F1 mouse melanoma cells; experiment: Cytotoxicity, resazurin metabolism assay, B16-F1; format: cell-based; details: 48 h, mean ± SD
Description: as §1, §2, §3

[8] = test system: A-549 cells; experiment: Cytotoxicity, Hoechst DNA assay, A-549; format: cell-based, human; details: ± SD
Description: as §1, §3

[9] = test system: B16-F1 cells; experiment: Cytotoxicity, Hoechst DNA assay, B16-F1; format: cell-based, mouse; details: ± SD
Description: as §1, §3

[10] = test system: Lewis lung carcinoma; experiment: In vivo antitumoral activity against Lewis lung cancer-bearing mice; set-up: species or system C57BL/6 mouse; details: day 13
Protocol: Cell lines and mice preparation: The Lewis lung carcinoma cell lines (#CRL-1642, lot # 4372266, ATCC) and the C57BL/6 mouse strain (Charles River Inc., St-Constant, Qc) were used. Cells were grown to 90% confluence in complete DMEM medium containing Earle's salts and L-glutamine (Mediatech Cellgro, Va.), 10% foetal bovine serum (Hyclone), vitamins (1×), penicillin (100 I.U./mL) and streptomycin (100 μg/mL), essential amino acids (1×) and sodium pyruvate (1×) (Mediatech Cellgro, Va.). Cells were then harvested with up and down only. Cells were counted using a hemacytometer and resuspended in DMEM medium without SVF. 100 μL of a solution containing 1×10^7 cells/mL was inoculated subcutaneously in the right flank of each 6 weeks old mouse on day zero.
The experimental mice were weighed daily.
Data analysis: In vivo antitumor activity was evaluated according to the parameters as follows (Miot-Noirault, E. et al. Invest. New Drugs 2004, 22, 369-378):
(a) Calculated tumour weight (CTW): The CTW of each tumour was estimated from two-dimensional measurements performed once a day with a slide calliper, according to the formula: CTW (mg)=(L×W^2)/2 with L=length in mm and W=width in mm. Differences in CTW between treated and control groups (DMSO) were analyzed for significance using the U Wilcoxon-Mann-Whitney test and Student t-test. Values of p<0.05 were considered statistically significant.
(b) Treated/Control value (T/C) and Tumour Growth Inhibition (TGI):The T/C was calculated as the ratio of the mean CTW of TW of drug-treated mice versus controls: T/C=(CTW of the drug-treated group on Day X/CTW of the control group on Day X)×100. TGI is 100−(T/C) value.

[11] = test system: L1210 murine lymphocytic leukemia; details: 200 mg/kg; cited from earlier work
[12] = test system: Walker 256 murine carcinosarcoma; details: cited from earlier work
[13] = test system: MDA-MB-231 human breast adenocarcinoma cells; experiment: Cytotoxicity, resazurin metabolism assay, MDA-MB-231; format: cell-based; details: mean ± SD
Description: as §1, §2
(§4) Compounds presented in Table 5 below were also tested in the following tumour cell lines: U-251 (Human glioma), HEP G2 (Human hepatocellular carcinoma), PC-3 (Human prostate adenocarcinoma), PA-1 (Human ovary teratocarcinoma metastatic), MDA-MB-231 (Human breast adenocarcinona metastatic), MCF-7 (Human breast adenocarcinoma) and SK-MEL-2 (Human malignant melanoma).

[14] = test system: MCF-7 human breast adenocarcinoma cells; experiment: Cytotoxicity, resazurin metabolism assay, MCF-7; format: cell-based; details: mean ± SD
Description: as §1, §2, §4

[15] = test system: PA-1 human ovary teratocarcinoma cells; experiment: Cytotoxicity, resazurin metabolism assay, PA-1; format: cell-based; details: mean ± SD
Description: as §1, §2, §4

[16] = test system: U-251 human glioma cells; experiment: Cytotoxicity, resazurin metabolism assay, U-251; format: cell-based; details: mean ± SD
Description: as §1, §2, §4

[17] = test system: SK-Mel-2 human melanoma cells; experiment: Cytotoxicity, resazurin metabolism assay, SK-Mel-2; format: cell-based; details: mean ± SD
Description: as §1, §2, §4

[18] = test system: Hep G2 human hepatocellular carcinoma cells; experiment: Cytotoxicity, resazurin metabolism assay, Hep G2; format: cell-based; details: mean ± SD
Description: as §1, §2, §4

[19] = test system: PC-3 human prostate adenocarcinoma cells; experiment: Cytotoxicity, resazurin metabolism assay, PC-3; format: cell-based; details: mean ± SD
Description: as §1, §2, §4

SMILES | IC50 [1] | IC50 [2] | IC50 [3] | IC50 [4] | IC50 [5] | IC50 [7] | IC50 [8] | IC50 [9] | IC50 [13] | IC50 [14] | IC50 [15] | IC50 [16] | IC50 [17] | IC50 [18] | IC50 [19] | further results
C=C(C)C1CCC2(COC3OCC(O)C(O)C3O)CCC3(C)C(CCC4C5(C)CCC(O)C(C)(C)C5CCC43C)C12 [Compound 17, 28-O-α-D-Arabinopyranoside of Betulin] | > 175 µM | > 175 µM | > 175 µM | > 194 µM | > 194 µM | > 175 µM | > 194 µM | > 194 µM | – | – | – | – | – | – | – | IC50 [6]: 25 ± 1 µM
C=C(C)[C@@H]1CC[C@]2(C(=O)O)CC[C@]3(C)[C@H](CC[C@@H]4[C@@]5(C)CC[C@H](O)C(C)(C)[C@@H]5CC[C@]43C)[C@@H]12 [Compound 3, Betulinic acid, reference compound] | 12 ± 1 µM | 15 ± 0.3 µM | 10.3 ± 0.4 µM | 12 ± 1 µM | 14 ± 2 µM | 16.1 ± 0.5 µM | 8 ± 1 µM | 18 ± 2 µM | – | – | – | – | – | – | – | CTW (calculated tumour weight) ([10]; 50 mg/kg IP every 3-4 days): 294 ± 69 mg; T/C (Treated/Control) ([10]; 50 mg/kg IP): 90%; TGI (Tumour Growth Inhibition) ([10]; 50 mg/kg IP): 10%; CTW (calculated tumour weight) ([10]; 100 mg/kg IP every 3-4 days): 264 ± 58 mg; T/C (Treated/Control) ([10]; 100 mg/kg IP): 81%; TGI (Tumour Growth Inhibition) ([10]; 100 mg/kg IP): 19%; CTW (calculated tumour weight) ([10]; 200 mg/kg IP every 3-4 days): 265 ± 58 mg; T/C (Treated/Control) ([10]; 200 mg/kg IP): 81%; TGI (Tumour Growth Inhibition) ([10]; 200 mg/kg IP): 19%; Activity in the L1210 murine lymphocytic leukemia model [11]: inactive; Activity in the Walker 256 model (subsequent report) ([12]; 400 mg/kg): inactive; Activity against the Walker 256 murine carcinosarcoma tumor system ([12]; dose levels of 300 and 500 mg/kg body weight): dose-dependent activity
C=C(C)[C@@H]1CC[C@]2(C)CC[C@]3(C)[C@H](CC[C@@H]4[C@@]5(C)CC[C@H](O[C@H]6OC[C@@H](O)[C@@H](O)[C@@H]6O)C(C)(C)[C@@H]5CC[C@]43C)[C@@H]12 [Compound 11, 3-O-α-D-Arabinopyranoside of Lupeol] | 15.8 ± 0.8 µM | 50 ± 6 µM | 28 ± 2 µM | 69 ± 7 µM | 24 ± 1 µM | 27 ± 2 µM | 34 ± 2 µM | 28 ± 1 µM | 11 ± 1 µM | 23 ± 2 µM | 9.8 ± 0.6 µM | 10.1 ± 0.2 µM | 10 ± 0.8 µM | 10 ± 0.9 µM | 26 ± 3 µM | –
C=C(C)[C@@H]1CC[C@]2(C(=O)O)CC[C@]3(C)[C@H](CC[C@@H]4[C@@]5(C)CC[C@H](O[C@H]6OC[C@@H](O)[C@@H](O)[C@@H]6O)C(C)(C)[C@@H]5CC[C@]43C)[C@@H]12 [Compound 23, 3-O-α-D-Arabinopyranoside of Betulinic Acid] | 47 ± 5 µM | 17 ± 3 µM | 10 ± 2 µM | 10 ± 1 µM | 32 ± 2 µM | 11 ± 1 µM | 5.7 ± 0.8 µM | 10.2 ± 0.6 µM | 57 ± 6 µM | 45 ± 9 µM | 20 ± 2 µM | 70 ± 10 µM | 62 ± 7 µM | 66 ± 9 µM | 110 ± 10 µM | –
C=C(C)[C@@H]1CC[C@]2(C(=O)OC)CC[C@]3(C)[C@H](CC[C@@H]4[C@@]5(C)CC[C@H](O[C@H]6OC[C@@H](O)[C@@H](O)[C@@H]6O)C(C)(C)[C@@H]5CC[C@]43C)[C@@H]12 [Compound 20, 3-O-α-D-Arabinopyranoside of Methyl Betulinate] | 12.5 ± 0.4 µM | 18 ± 1 µM | 13.5 ± 0.6 µM | 16 ± 0.6 µM | 13.2 ± 0.7 µM | 13.3 ± 0.4 µM | 11.7 ± 0.8 µM | 12.6 ± 0.5 µM | 16.3 ± 0.8 µM | 21 ± 3 µM | 16 ± 4 µM | 15 ± 1 µM | 16 ± 1 µM | 15 ± 2 µM | 17 ± 1 µM | –
C=C(C)[C@@H]1CC[C@]2(C(=O)OC)CC[C@]3(C)[C@H](CC[C@@H]4[C@@]5(C)CC[C@H](O[C@@H]6O[C@H](CO)[C@@H](O)[C@H](O)[C@H]6O)C(C)(C)[C@@H]5CC[C@]43C)[C@@H]12 [Compound 18, 3-O-β-D-Glucopyranoside of Methyl Betulinate] | 9.3 ± 0.2 µM | 3.93 ± 0.09 µM | 8.4 ± 0.3 µM | 4 ± 0.2 µM | 12 ± 2 µM | 7.1 ± 0.3 µM | 9.3 ± 0.6 µM | 7.2 ± 0.8 µM | 101.7 ± 0.1 µM | 110 ± 6 µM | 60 ± 20 µM | 84 ± 2 µM | 103 ± 4 µM | 79 ± 5 µM | 130 ± 30 µM | –
